{"source": "ChEMBL document CHEMBL4364281", "about": "“Design of wogonin-inspired selective cyclin-dependent kinase 9 (CDK9) inhibitors with potent in vitro and in vivo antitumor activity” (Eur J Med Chem, 2019)", "key": {"[1]": {"system": "MV4-11", "assay": "cells", "details": "Homo sapiens, MV4-11, 72 h", "description": "Antiproliferative activity against human MV4-11 cells assessed as reduction in cell viability after 72 hrs by MTT assay"}, "[2]": {"system": "MV4-11", "assay": "Antitumor activity against human MV4-11 cells xenografted in BALB/c mouse assessed as tumour growth inhibition at 45 mg/kg, iv administered every other day for 21 days relative to control", "format": "functional", "details": "MV4-11, iv, 504 h, read-out: TGI"}, "[3]": {"system": "MV4-11", "assay": "Cell cycle arrest in human MV4-11 cells assessed as accumulation at G2 phase at 0.25 uM after 24 hrs propidium iodide staining based flow cytometry (reference value: 22.73%)", "format": "functional"}, "[4]": {"system": "HL-60", "assay": "Antiproliferative activity against human HL60 cells assessed as reduction in cell viability after 72 hrs by MTT assay", "format": "functional, cell-based", "details": "HL-60, 72 h"}, "[5]": {"system": "MCF7", "assay": "Antiproliferative activity against human MCF7 cells assessed as reduction in cell viability after 72 hrs by MTT assay", "format": "functional, cell-based", "details": "MCF7, 72 h"}, "[6]": {"system": "L02", "assay": "Cytotoxicity against human LO2 cells assessed as reduction in cell viability after 72 hrs by MTT assay", "format": "cell-based", "details": "L02, 72 h"}, "[7]": {"system": "MV4-11", "assay": "Induction of apoptosis in human MV4-11 cells assessed as early apoptotic cells at 0.05 uM after 24 hrs by Annexin-V/propidium iodide staining based flow cytometric method (reference value: 0.36%)", "format": "functional"}, "[8]": {"system": "MV4-11", "assay": "Induction of apoptosis in human MV4-11 cells assessed as viable cells at 1.25 uM after 24 hrs by Annexin-V/propidium iodide staining based flow cytometric method (reference value: 96.94%)", "format": "functional", "details": "MV4-11, 24 h, read-out: Activity"}, "[9]": {"system": "MV4-11", "assay": "Induction of apoptosis in human MV4-11 cells assessed as decrease in c-MYC expression after 4 hrs by Western blot analysis", "format": "functional, cell-based"}, "[10]": {"system": "MV4-11", "assay": "Cell cycle arrest in human MV4-11 cells assessed as accumulation at G2 phase at 0.05 uM after 24 hrs propidium iodide staining based flow cytometry (reference value: 22.73%)", "format": "functional"}, "[11]": {"system": "MV4-11", "assay": "Induction of apoptosis in human MV4-11 cells assessed as viable cells at 0.05 uM after 24 hrs by Annexin-V/propidium iodide staining based flow cytometric method (reference value: 96.94%)", "format": "functional", "details": "MV4-11, 24 h, read-out: Activity"}, "[12]": {"system": "MV4-11", "assay": "Cell cycle arrest in human MV4-11 cells assessed as accumulation at G1 phase at 0.25 uM after 24 hrs after 24 hrs by propidium iodide staining based flow cytometry (reference value: 41.20%)", "format": "functional"}, "[13]": {"system": "RPMI-8226", "assay": "Antiproliferative activity against human RPMI8226 cells assessed as reduction in cell viability after 72 hrs by MTT assay", "format": "functional, cell-based", "details": "RPMI-8226, 72 h"}, "[14]": {"system": "CCRF-CEM", "assay": "Antiproliferative activity against human CEM cells assessed as reduction in cell viability after 72 hrs by MTT assay", "format": "functional, cell-based"}}}
{"compound": "COc1cc(O)c2c(=O)cc(-c3ccc(N4CCN(C)CC4)cc3)oc2c1Oc1c(C)n[nH]c1C", "values": [{"measurement": "IC50", "setting": "[1]", "value": 20, "unit": "nM"}, {"measurement": "inhibition in vivo at 45 mg/kg", "setting": "[2]", "value": 53, "unit": "%"}, {"measurement": "Activity", "setting": "[3]", "value": 13.32, "unit": "%"}, {"measurement": "IC50", "setting": "[4]", "value": 5210, "unit": "nM"}, {"measurement": "IC50", "setting": "[5]", "value": 480, "unit": "nM"}, {"measurement": "IC50", "setting": "[6]", "value": 15100, "unit": "nM"}, {"measurement": "Activity", "setting": "[7]", "value": 12.42, "unit": "%"}, {"measurement": "viability at 1.25 µM", "setting": "[8]", "value": 58.1, "unit": "%"}, {"measurement": "Activity", "setting": "[9]", "value": "Dose-dependent effect"}, {"measurement": "Activity", "setting": "[10]", "value": 17.82, "unit": "%"}, {"measurement": "viability at 0.05 µM", "setting": "[11]", "value": 74.8, "unit": "%"}, {"measurement": "Activity", "setting": "[12]", "value": 55.77, "unit": "%"}, {"measurement": "IC50", "setting": "[13]", "value": 820, "unit": "nM"}, {"measurement": "IC50", "setting": "[14]", "value": 1240, "unit": "nM"}]}
